From patent publication US9474790B2, “Stable, protracted GLP-1/glucagon receptor co-agonists for medical use” (Novo Nordisk A/S, priority 2013, dated 2016)
Numbered stars: 1 amine (or outer) side, 2 acyl side, 3 side chain; on linkers, the order of the positions; unused ones are H or OH. Square brackets hold non-standard residues; d marks the D form. Side chains are listed from the residue outwards. Peptide text beside a SMILES is read from it. * marks the point of attachment. C18 diacid = O=C(O)CCCCCCCCCCCCCCCCC(=O)*; γGlu = O=C(O)[C@H](CCC(=O)[*:2])N[*:1]; Ac4c = NC1(C(=O)O)CCC1; AEEA = NCCOCCOCC(=O)O; Aib = CC(C)(N)C(=O)O

biological target: T1, human glucagon receptor (Homo sapiens, UniProt P47871); assay: Glucagon receptor binding, 125I-glucagon displacement SPA on isolated membranes; conditions: displacement of 125I-glucagon from membranes; read-out: IC50 GlucR
T1 construct: expressed in transfected cells; host or cells: BHK cells (parent BHK570, CRE luciferase clone BHK/KZ10-20-48), clone pLJ6'-4-25
T1 sequence (P47871 26-477): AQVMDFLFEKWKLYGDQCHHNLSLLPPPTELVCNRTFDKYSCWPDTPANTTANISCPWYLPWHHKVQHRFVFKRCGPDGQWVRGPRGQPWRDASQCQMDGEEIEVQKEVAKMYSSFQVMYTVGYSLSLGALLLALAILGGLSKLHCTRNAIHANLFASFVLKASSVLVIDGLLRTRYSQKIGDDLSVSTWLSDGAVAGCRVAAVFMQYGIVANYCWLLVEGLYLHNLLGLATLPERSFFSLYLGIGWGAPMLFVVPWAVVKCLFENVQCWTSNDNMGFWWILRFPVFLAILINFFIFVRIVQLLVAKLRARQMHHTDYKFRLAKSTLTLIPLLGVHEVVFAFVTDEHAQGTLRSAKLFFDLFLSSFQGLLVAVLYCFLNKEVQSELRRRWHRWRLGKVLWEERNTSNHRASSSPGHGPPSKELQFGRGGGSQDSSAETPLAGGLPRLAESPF
Method in brief: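 Displacement IC50 derived by non-linear regression of SPA counts after 2 h, 25 °C incubation of compound with [125I]-glucagon (480 pM solution, 25 μl) and membranes of hGCGR-transfected BHK cells. Buffer was HEPES pH 7.4 with ovalbumin; serum albumin was held at 0.001% max or 0.2% final.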

Compound	IC50
CC(C)C[C@H](NC(=O)[C@H](Cc1ccc(O)cc1)NC(=O)[C@H](CCCCN)NC(=O)[C@H](CO)NC(=O)[C@H](CC(C)C)NC(=O)[C@H](CC(=O)O)NC(=O)[C@H](CO)NC(=O)[C@@H](NC(=O)[C@H](Cc1ccccc1)NC(=O)[C@@H](NC(=O)CNC(=O)[C@H](CCC(N)=O)NC(=O)C(C)(C)NC(=O)[C@@H](N)Cc1c[nH]cn1)[C@@H](C)O)[C@@H](C)O)C(=O)N[C@@H](CC(=O)O)C(=O)N[C@@H](C)C(=O)N[C@@H](CCCNC(=N)N)C(=O)N[C@@H](CCCNC(=N)N)C(=O)N[C@@H](C)C(=O)N[C@@H](CCCNC(=N)N)C(=O)N[C@@H](CCC(=O)O)C(=O)N[C@@H](Cc1ccccc1)C(=O)N[C@H](C(=O)N[C@@H](CCC(N)=O)C(=O)N[C@@H](Cc1c[nH]c2ccccc12)C(=O)N[C@@H](CC(C)C)C(=O)N[C@@H](CC(C)C)C(=O)N[C@@H](CCCCNC(=O)CC[C@H](NC(=O)CC[C@H](NC(=O)COCCOCCNC(=O)COCCOCCNC(=O)CC[C@H](NC(=O)CCCCCCCCCCCCCCCCC(=O)O)C(=O)O)C(=O)O)C(=O)O)C(=O)N[C@H](C(N)=O)[C@@H](C)O)C(C)C [Example 43, N^ε28-[(4S)-4-carboxy-4-[[(4S)-4-carboxy-4-[[2-[2-[2-[[2-[2-[2-[[(4S)-4-carboxy-4-(17-carboxyheptadecanoylamino)butanoyl]amino]ethoxy]ethoxy]acetyl]amino]ethoxy]ethoxy]acetyl]amino]butanoyl]amino]butanoyl]-[Aib2,Leu10,Ala16,Arg20,Glu21,Leu27,Lys28]-Glucagon amide] (H-H[Aib]QGTFTSDLSKYLDARRAREFVQWLLK([γGlu-γGlu-AEEA-AEEA-γGlu-C18 diacid])T-NH2; N-terminus assumed)	5.6 nM
CC(C)C[C@H](NC(=O)[C@H](Cc1ccc(O)cc1)NC(=O)[C@H](CCCCN)NC(=O)[C@H](CO)NC(=O)[C@H](CC(C)C)NC(=O)[C@H](CC(=O)O)NC(=O)[C@H](CO)NC(=O)[C@@H](NC(=O)[C@H](Cc1ccccc1)NC(=O)[C@@H](NC(=O)CNC(=O)[C@H](CCC(N)=O)NC(=O)C1(NC(=O)[C@@H](N)Cc2c[nH]cn2)CCC1)[C@@H](C)O)[C@@H](C)O)C(=O)N[C@@H](CCC(=O)O)C(=O)N[C@@H](CO)C(=O)N[C@@H](CCCNC(=N)N)C(=O)N[C@@H](CCCNC(=N)N)C(=O)N[C@@H](C)C(=O)N[C@@H](CCCNC(=N)N)C(=O)N[C@@H](CCC(=O)O)C(=O)N[C@@H](Cc1ccccc1)C(=O)N[C@H](C(=O)N[C@@H](CCC(N)=O)C(=O)N[C@@H](Cc1c[nH]c2ccccc12)C(=O)N[C@@H](CC(C)C)C(=O)N[C@@H](CC(C)C)C(=O)N[C@@H](CCCCNC(=O)CC[C@H](NC(=O)CC[C@H](NC(=O)COCCOCCNC(=O)COCCOCCNC(=O)CC[C@H](NC(=O)CCCCCCCCCCCCCCCCC(=O)O)C(=O)O)C(=O)O)C(=O)O)C(=O)N[C@H](C(N)=O)[C@@H](C)O)C(C)C [Example 44, N^ε28-[(4S)-4-carboxy-4-[[(4S)-4-carboxy-4-[[2-[2-[2-[[2-[2-[2-[[(4S)-4-carboxy-4-(17-carboxyheptadecanoylamino)butanoyl]amino]ethoxy]ethoxy]acetyl]amino]ethoxy]ethoxy]acetyl]amino]butanoyl]amino]butanoyl]-[Acb2,Leu10,Glu15,Arg20,Glu21,Leu27,Lys28]-Glucagon amide] (H-H[Ac4c]QGTFTSDLSKYLESRRAREFVQWLLK([γGlu-γGlu-AEEA-AEEA-γGlu-C18 diacid])T-NH2; N-terminus assumed)	7.2 nM
CC(C)C[C@H](NC(=O)[C@H](CC(=O)O)NC(=O)[C@H](CC(C)C)NC(=O)[C@H](Cc1ccc(O)cc1)NC(=O)[C@H](CCCNC(=N)N)NC(=O)[C@H](CO)NC(=O)[C@H](CC(C)C)NC(=O)[C@H](CC(=O)O)NC(=O)[C@H](CO)NC(=O)[C@@H](NC(=O)[C@H](Cc1ccccc1)NC(=O)[C@@H](NC(=O)CNC(=O)[C@H](CCC(N)=O)NC(=O)C1(NC(=O)[C@@H](N)Cc2c[nH]cn2)CCC1)[C@@H](C)O)[C@@H](C)O)C(=O)N[C@@H](CCCNC(=N)N)C(=O)N[C@@H](CCCNC(=N)N)C(=O)N[C@@H](C)C(=O)N[C@@H](CCCNC(=N)N)C(=O)N[C@@H](CC(=O)O)C(=O)N[C@@H](Cc1ccccc1)C(=O)N[C@H](C(=O)N[C@@H](CCC(N)=O)C(=O)N[C@@H](Cc1c[nH]c2ccccc12)C(=O)N[C@@H](CC(C)C)C(=O)N[C@@H](CC(C)C)C(=O)N[C@@H](CCCCNC(=O)CC[C@H](NC(=O)CC[C@H](NC(=O)COCCOCCNC(=O)COCCOCCNC(=O)CC[C@H](NC(=O)CC[C@H](NC(=O)CCCCCCCCCCCCCCCCC(=O)O)C(=O)O)C(=O)O)C(=O)O)C(=O)O)C(=O)N[C@H](C(N)=O)[C@@H](C)O)C(C)C [Example 46, N^ε28-[(4S)-4-carboxy-4-[[(4S)-4-carboxy-4-[[2-[2-[2-[[2-[2-[2-[[(4S)-4-carboxy-4-[[(4S)-4-carboxy-4-(17-carboxyheptadecanoylamino)butanoyl]amino]butanoyl]amino]ethoxy]ethoxy]acetyl]amino]ethoxy]ethoxy]acetyl]amino]butanoyl]amino]butanoyl]-[Acb2,Leu10,Arg12,Leu16,Arg20,Leu27,Lys28]-Glucagon amide] (H-H[Ac4c]QGTFTSDLSRYLDLRRARDFVQWLLK([γGlu-γGlu-AEEA-AEEA-γGlu-γGlu-C18 diacid])T-NH2; N-terminus assumed)	8.5 nM

Compounds with a lower IC50, results first:

IC50	Compound
1.7 nM	CC(C)C[C@H](NC(=O)[C@H](CC(=O)O)NC(=O)[C@H](CC(C)C)NC(=O)[C@H](Cc1ccc(O)cc1)NC(=O)[C@H](CCCCN)NC(=O)[C@H](CO)NC(=O)[C@H](CC(C)C)NC(=O)[C@H](CC(=O)O)NC(=O)[C@H](CO)NC(=O)[C@@H](NC(=O)[C@H](Cc1ccccc1)NC(=O)[C@@H](NC(=O)CNC(=O)[C@H](CCC(N)=O)NC(=O)C1(NC(=O)[C@@H](N)Cc2c[nH]cn2)CCC1)[C@@H](C)O)[C@@H](C)O)C(=O)N[C@@H](CCCNC(=N)N)C(=O)N[C@@H](CCCNC(=N)N)C(=O)N[C@@H](C)C(=O)N[C@@H](CCCNC(=N)N)C(=O)N[C@@H](CCC(=O)O)C(=O)N[C@@H](Cc1ccccc1)C(=O)N[C@H](C(=O)N[C@@H](CCC(N)=O)C(=O)N[C@@H](Cc1c[nH]c2ccccc12)C(=O)N[C@@H](CC(C)C)C(=O)N[C@@H](CC(C)C)C(=O)N[C@@H](CCCCNC(=O)CC[C@H](NC(=O)CC[C@H](NC(=O)COCCOCCNC(=O)COCCOCCNC(=O)CC[C@H](NC(=O)CC[C@H](NC(=O)CCCCCCCCCCCCCCCCC(=O)O)C(=O)O)C(=O)O)C(=O)O)C(=O)O)C(=O)N[C@H](C(N)=O)[C@@H](C)O)C(C)C [Example 49, N^ε28-[(4S)-4-carboxy-4-[[(4S)-4-carboxy-4-[[2-[2-[2-[[2-[2-[2-[[(4S)-4-carboxy-4-[[(4S)-4-carboxy-4-(17-carboxyheptadecanoylamino)butanoyl]amino]butanoyl]amino]ethoxy]ethoxy]acetyl]amino]ethoxy]ethoxy]acetyl]amino]butanoyl]amino]butanoyl]-[Acb2,Leu10,Leu16,Arg20,Glu21,Leu27,Lys28]-Glucagon amide] (H-H[Ac4c]QGTFTSDLSKYLDLRRAREFVQWLLK([γGlu-γGlu-AEEA-AEEA-γGlu-γGlu-C18 diacid])T-NH2; N-terminus assumed)
1.5 nM	CC(C)C[C@H](NC(=O)[C@H](CC(=O)O)NC(=O)[C@H](CC(C)C)NC(=O)[C@H](Cc1ccc(O)cc1)NC(=O)[C@H](CCCCN)NC(=O)[C@H](CO)NC(=O)[C@H](CC(C)C)NC(=O)[C@H](CC(=O)O)NC(=O)[C@H](CO)NC(=O)[C@@H](NC(=O)[C@H](Cc1ccccc1)NC(=O)[C@@H](NC(=O)CNC(=O)[C@H](CCC(N)=O)NC(=O)C1(NC(=O)[C@@H](N)Cc2c[nH]cn2)CCC1)[C@@H](C)O)[C@@H](C)O)C(=O)N[C@@H](CCCCN)C(=O)N[C@@H](CCCNC(=N)N)C(=O)N[C@@H](C)C(=O)N[C@@H](CCCNC(=N)N)C(=O)N[C@@H](CCC(=O)O)C(=O)N[C@@H](Cc1ccccc1)C(=O)N[C@H](C(=O)N[C@@H](CCC(N)=O)C(=O)N[C@@H](Cc1c[nH]c2ccccc12)C(=O)N[C@@H](CC(C)C)C(=O)N[C@@H](CC(C)C)C(=O)N[C@@H](CCCCNC(=O)CC[C@H](NC(=O)CC[C@H](NC(=O)COCCOCCNC(=O)COCCOCCNC(=O)CC[C@H](NC(=O)CC[C@H](NC(=O)CCCCCCCCCCCCCCCCC(=O)O)C(=O)O)C(=O)O)C(=O)O)C(=O)O)C(=O)N[C@H](C(N)=O)[C@@H](C)O)C(C)C [Example 47, N^ε28-[(4S)-4-carboxy-4-[[(4S)-4-carboxy-4-[[2-[2-[2-[[2-[2-[2-[[(4S)-4-carboxy-4-[[(4S)-4-carboxy-4-(17-carboxyheptadecanoylamino)butanoyl]amino]butanoyl]amino]ethoxy]ethoxy]acetyl]amino]ethoxy]ethoxy]acetyl]amino]butanoyl]amino]butanoyl]-[Acb2,Leu10,Leu16,Lys17,Arg20,Glu21,Leu27,Lys28]-Glucagon amide] (H-H[Ac4c]QGTFTSDLSKYLDLKRAREFVQWLLK([γGlu-γGlu-AEEA-AEEA-γGlu-γGlu-C18 diacid])T-NH2; N-terminus assumed)
